The source of these data is US20050019825A9, “Common ligand mimics: pseudothiohydantoins” (priority 2002, published 2005).

Test [1] concerns the target glyceraldehyde-3-phosphate dehydrogenase (GAPDH) (Escherichia coli, UniProt P0A9B2). Put plainly: GAPDH kinetic assay, spectrophotometric reduction of NAD+ (340 nm). The format is biochemical, E. coli. The settings on record: for inhibition of GAPDH (in words): Example 24 (FIG. 6). The protocol:
For GAPDH analysis, the compounds were screened using a kinetic protocol that spectrophotometrically evaluates reduction of NAD+.
(§1) Stock solutions of each of the reagents were prepared in the following concentrations. Dilutions of the stock solutions were prepared prior to running the assay in the concentrations indicated below.
The GAPDH reaction was monitored at 340 nm prior to and after addition of the inhibitor to detect background reaction with the inhibitor. Solutions of 100 μl of the inhibitors incubated for 6 minutes at 25° C. in a 990 μl of a solution containing 125 mM triethanolamine, pH 7.5, 145 μM glyceraldehyde 3-phosphate (GAP), 0.211 mM NAD, 5 mM sodium arsenate, and 3 mM β-metcaptoethanol (2-BME). The reaction was then initiated with 10 μl of E. coli GAPDH (1:200 dilution of 1.0 mg/ml). After the enzyme was added, the solution was mixed for 20 seconds, and the reaction was run for 10minutes. After a 50 second lag, the samples were read in a Cary spectrophotometer at 340 nm. Reading of the samples was continued until 300 seconds. The final concentration of DMSO in a cuvette was about 5% of the total assay volume. Cuvette #1 contained the control reaction (no inhibitor).
GAP for use in this experiment was deprotected from the diethyl acetal in the following manner. Water was boiled in recrystallizing dish. Dowex (1.5 mg) and GAP (200 mg; SIGMA G-5376) were weighed and placed in a 15 ml conical tube. The Dowex and GAP were resuspended in 2 ml dH2O, followed by shaking of the tube until the GAP dissolved. The tube was then immersed, while shaking, in the boiling water for 3 minutes. Next, the tube was placed in an ice bath to cool for 5 minutes. As the sample cooled, a resin settled to the bottom of the test tube, allowing removal of the supernatant with a pasteur pipette. The supernatant was filtered through a 0.45 or 0.2 μM cellulose acetate syringe filter.
The filtered supernatant was retained, and another 1 ml of dH2O was added to the resin tube. The tube was then shaken and centrifuged for 5 minutes at 3,000 rpm. The supernatant was again removed with a pasteur pipette and passed through a 0.45 or 0.2 μM cellulose acetate syringe filter. The two supernatant aliquots were then pooled to provide a total GAP concentration of about 50 mM. The GAP was then divided into 100 μl aliquots and stored at −20° C. until use.

Test [2] concerns the target dihydrodipicolinate reductase (DHPR) (Escherichia coli, UniProt P04036). Put plainly: DHPR kinetic assay, spectrophotometric oxidation of NADPH (340 nm). Type of test: biochemical. The protocol: For DHPR analysis, the compounds were screened using a kinetic protocol that spectrophotometrically evaluates oxidation of NADPH.
Stock solutions of each of the reagents were prepared in the following concentrations. Dilutions of the stock solutions were prepared prior to running the assay in the concentrations indicated below. DHPR was diluted in 10 mM HEPES at a pH of 7.4. DHPS (dihydrodipicolinate synthase) was not diluted and was stored in eppindorf tubes.
The L-ASA (L-aspartate semialdehyde) solution was prepared in the following manner. 180 μM stock solution of ASA was prepared. 100 μl of the ASA stock solution was mixed with 150 μl of concentrated NaHCO3 and 375 μl of H2O. For use in the assay, 28.8 mM L-ASA was equal to 625 μl of the solution. The L-ASA stock solution was kept at a temperature of −20° C. After dilution, the pH of the 28.8 mM solution was checked and maintained between 1 and 2.
The DHPS reaction was monitored at 340 nm prior to and after addition of the inhibitor to detect background reaction with the inhibitor. The solution for background detection was a 945 μl solution containing 0.1 HEPES (pH 7.8), 1 mM pyruvate, 6 μM NADPH, 40 μM L-ASA, and 7 μl of 1 mg/ml DHPS at 25° C. in the volumes provided above. The sample solution was then mixed and incubated for 10 minutes. Next, 500 nM solutions of the inhibitors and enough DMSO to provide a final DMSO concentration of 5% of the total assay volume were added. The solution was mixed and incubated for an additional 6 minutes.
In DHPR samples, 5 μl of the diluted DHPR enzyme were added. The sample was mixed for 20 seconds and then the reaction was run for 10 minutes. After a 50 second lag, the samples were read in a Cary spectrophotometer at 340 nm. Reading of the samples was continued until 300 seconds. Cuvette #1 contained the control reaction (no inhibitor), and cuvette #2 contained the positive control reaction in which Cibacron Blue at 2.58 μM was substituted for inhibitor to yield 70 to 80% inhibition. The substrate was kept at a level at least 10 times the Km. The final concentration of L-ASA was about 1 mM.

The target of test [3] is T1, lactate dehydrogenase (LDH) (Oryctolagus cuniculus, UniProt P13491).
T1 construct: 10 μl of LDH from Rabbit Muscle; from tissue; host or cells: rabbit muscle
The test can be described thus: LDH kinetic assay, spectrophotometric oxidation of NADH (340 nm). Type of test: biochemical, Rabbit. The settings on record: for IC50: common ligand mimics, Examples 23/24, LDH from Rabbit Muscle. The method, then: For LDH analysis, the compounds were screened using a kinetic protocol that spectrophotometrically evaluates oxidation of NADH.
as §1
The LDH reaction was monitored at 340 nm prior to and after addition of the inhibitor to detect background reaction with the inhibitor. Solutions of 100 μl of the inhibitors in DMSO were prepared to provide a final DMSO concentration of 5% of the total assay volume. These solutions were incubated for 6 minutes at 25° C. in a 990 μl of a solution containing 0.1 M HEPES, pH 7.4, 10 μM NADH, and 2.5 mM of pyruvate. The reaction was then initiated with 10 μl of LDH from Rabbit Muscle (0.5 μg/ml; 1:2000 dilution of 1.0 mg/ml). After the enzyme was added, the solution was mixed for 20 seconds, and the reaction was run for 10 minutes. After a 50 second lag, the samples were read in a Cary spectrophotometer at 340 nm. Reading of the samples was continued until 300 seconds. Cuvette #1 contained the control reaction (no inhibitor), and cuvette #2 contained the positive control reaction in which Cibacron Blue at 10.3 μM was substituted for inhibitor to yield 50 to 70% inhibition. The substrate was kept at a level at least 10 times the Km.

Setting [4] is: common ligand mimics, Examples 23/24 (FIG. 5, FIG. 6), read-out: IC50 for DHPR.

Read-outs that look alike come from different tables or passages of the source.

Sequence of glyceraldehyde-3-phosphate dehydrogenase (GAPDH) (P0A9B2 whole entry): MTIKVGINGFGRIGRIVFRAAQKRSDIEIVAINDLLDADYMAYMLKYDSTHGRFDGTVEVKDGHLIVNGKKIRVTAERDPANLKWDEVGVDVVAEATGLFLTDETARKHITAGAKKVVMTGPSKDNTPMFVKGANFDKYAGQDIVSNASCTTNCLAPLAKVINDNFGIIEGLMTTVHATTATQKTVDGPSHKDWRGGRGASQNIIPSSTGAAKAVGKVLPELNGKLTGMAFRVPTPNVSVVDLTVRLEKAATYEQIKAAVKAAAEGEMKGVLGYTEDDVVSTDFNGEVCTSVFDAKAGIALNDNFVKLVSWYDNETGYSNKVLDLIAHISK
Sequence of dihydrodipicolinate reductase (DHPR) (P04036 whole entry): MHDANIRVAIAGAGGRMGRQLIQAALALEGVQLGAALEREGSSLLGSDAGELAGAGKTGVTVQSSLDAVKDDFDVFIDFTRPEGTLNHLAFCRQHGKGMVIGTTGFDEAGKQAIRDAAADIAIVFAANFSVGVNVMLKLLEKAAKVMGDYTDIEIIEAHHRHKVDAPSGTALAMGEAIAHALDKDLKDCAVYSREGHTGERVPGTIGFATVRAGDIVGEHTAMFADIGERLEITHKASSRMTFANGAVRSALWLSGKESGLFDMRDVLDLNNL

In the case of `N=C1NC(=O)C(=Cc2ccc(O)c([N+](=O)[O-])c2)S1` [5-(4-hydroxy-3-nitro-benzylidene)-2-imino-thiazolidin-4-one], the IC50 in test [1] was 153 µM; in test [2] it was greater than 100 µM; in test [3], 27.9 µM.
For the compound `COc1cc(C=C2SC(N)=NC2=O)ccc1O` [5-(4-hydroxy-3-methoxy-benzylidene)-2-imino-thiazolidin-4-one], the IC50 was greater than 75 µM in test [2] and greater than 100 µM in test [3].
As to `COc1cc(O)ccc1C=C1SC(=N)NC1=O` [5-(4-hydroxy-2-methoxy-benzylidene)-2-imino-thiazolidin-4-one], the “inhibition of GAPDH (in words)” value in test [1] was “no inhibition”. The IC50 in test [2] (setting [4]) was greater than 75 µM.
Take `N=C1NC(=O)C(=Cc2ccc(C(=O)O)cc2)S1` [4-(2-imino-4-oxo-thiazolidin-5-ylidenemethyl)-benzoic acid]: in test [1], the “inhibition of GAPDH (in words)” value is “no inhibition”. The IC50 was greater than 100 µM in test [1] (common ligand mimics, Examples 23/24, E. coli GAPDH, read-out: IC50 for GAPDH); greater than 25 µM in test [2] (setting [4]); greater than 100 µM in test [3].
Consider `Nc1c(S(=O)(=O)O)cc(Nc2ccc(Nc3nc(Cl)nc(Nc4ccccc4S(=O)(=O)O)n3)c(S(=O)(=O)O)c2)c2c1C(=O)c1ccccc1C2=O` [Cibacron Blue, reference compound], for which the inhibition at 2.58 µM in test [2] (Cibacron Blue at 2.58 μM, read-out: inhibition of DHPR, positive control) lay in the range of 70 to 80%. The inhibition at 10.3 µM in test [3] (Cibacron Blue at 10.3 μM, read-out: inhibition of LDH, positive control) was in the range of 50 to 70%.

As usually defined, the IC50 is the concentration that inhibits the measured activity by half. Broadly, the inhibition is the relative decrease from the control value, in per cent.
